Usually inhibition stands for the drop in the measured response relative to a control, in per cent. Low values mean a response near the control, high ones a response far below the control.

The source of these data is patent US5786344A, “Camptothecin drug combinations and methods with reduced side effects” (priority 1995, dated 1998).

Where “and” joins values, the source holds several entries; their conditions need not be identical. Identical values can stand only once. Entries after “also recorded” stand apart in the source; their conditions may differ. Like-named read-outs stand apart in the source and are kept apart here. Bounds are passed on as bounds.

In one data set the test system is glucuronosyltransferase. As to conditions: cited from earlier work.
The conditions of data set [1]: gastrointestinal tract or solution; cited from earlier work.
Another data set relates to tumors. As to conditions: cited from earlier work.
The conditions of data set [2]: animal studies; cited from earlier work.
For data set [3] the following is noted: cited from earlier work.
Data set [4] in a line: Phase I pharmacokinetics of CPT-11, SN-38 and SN-38G in plasma/urine after 90 min iv infusion. On the procedure:
All patients met the standard laboratory criteria including criteria for adequate organ function. Informed, written consent was obtained from all patients prior to their first dose of CPT-11. The drug was given in 500 cc normal saline by intravenous infusion over 90 minutes on a weekly basis for four doses in a sixweek cycle. […] A second cycle was given with the same dose and schedule used during cycle 1. […] Patients who experienced dose limiting neutropenia were eligible to receive G-CSF at 5 μg/kg/day according to the criteria defined below.
To determine drug and metabolite levels, heparinized blood samples obtained on the first cycle of therapy, were centrifuged and the plasma was stored at -70° C. until analysis. CPT (camptothecin, 1 μg/ml, obtained from the National Cancer Institute, Bethesda, Md.) was used as an internal standard. One hundred μl of plasma was extracted with 2 ml of methanol, centrifuged at 2500×g for 10 min and the supernatant was evaporated to dryness. Reconstitution was done with 200 μl of methanol containing 0.1% 10M HCL (pH~2.0). For the estimation of SN-38G, plasma samples were extracted as described above. Prior to reconstitution, the samples were incubated with 1000 U of glucuronidase (Sigma Chemical Co., St. Louis, Mo.) for 2 hours at 37° C.
Analysis was done using a C18 column (μBondapak, 10 μm, 3.9×300 mm; Waters Associates, Milford, Mass.) preceded by a Novapak C18 guard column. […] Detection was monitored by a Hitachi F1050 Fluorescence detector (Hitachi Instruments Inc., Naperville, Ill.) with a λex at 375 nm and λem at 566 nm. […] SN-38G concentrations were determined as the increase in SN-38 concentrations following incubation with glucuronidase.
The plasma concentration-time data of CPT-11, SN-38 and SN-38G were analyzed by non-compartmental analysis using PCNONLIN (SCI, Lexington, Ky.). The area under the plasma concentration-time curve (AUC) from time zero (predose) to the time of the last quantifiable concentration (AUCt) was calculated by the trapezoidal rule. The AUC extrapolated to time infinity (AUCt →.infin.) was estimated by dividing the last quantifiable concentration by the terminal rate constant obtained by the log-linear regression of the terminal elimination phase. The AUC was the summation of AUCt and AUCt→.infin.. Clearance (CL) was estimated as the ratio of the dose and AUC.
The present study employed this principle to obtain an estimate of SN-38 excreted in the bile. Since glucuronidation is the major pathway of elimination of SN-38, the fraction of SN-38 not conjugated would be primarily excreted in the bile. The net biliary concentration of SN-38 would then be a resultant of its formation and elimination. This concentration was expressed as the "biliary ratio" which was the ratio of AUC of SN-38 to SN-38G. To control for individual variability in the amount of available drug, the ratio was multiplied by the AUC of CPT-11 to obtain a "biliary index" of SN-38.
The nonparametric Mann-Whitney test was employed to test for differences in pharmacokinetic outcomes between two patient groups, defined by the worst severity of diarrhea experienced in the first two cycles of CPT-11 treatment. Statistical tests were performed in the Number Cruncher Statistical System (Dr. Jerry Hintz, Kaysville, Utah). A two-sided significance level of less than or equal to 0.05 was considered statistically significant.

For data set [5] the following is noted: nude mice, accumulation in the intestine; cited from earlier work.
The target in data set [6] is T1, p-glycoprotein (Homo sapiens, UniProt P08183).
T1 construct: membrane vesicles from the multidrug resistant breast tumor cell line; endogenous in cells; host or cells: MCF-7/Adr (multidrug resistant human breast cancer cell line), membrane vesicles
T1 sequence (P08183 whole entry): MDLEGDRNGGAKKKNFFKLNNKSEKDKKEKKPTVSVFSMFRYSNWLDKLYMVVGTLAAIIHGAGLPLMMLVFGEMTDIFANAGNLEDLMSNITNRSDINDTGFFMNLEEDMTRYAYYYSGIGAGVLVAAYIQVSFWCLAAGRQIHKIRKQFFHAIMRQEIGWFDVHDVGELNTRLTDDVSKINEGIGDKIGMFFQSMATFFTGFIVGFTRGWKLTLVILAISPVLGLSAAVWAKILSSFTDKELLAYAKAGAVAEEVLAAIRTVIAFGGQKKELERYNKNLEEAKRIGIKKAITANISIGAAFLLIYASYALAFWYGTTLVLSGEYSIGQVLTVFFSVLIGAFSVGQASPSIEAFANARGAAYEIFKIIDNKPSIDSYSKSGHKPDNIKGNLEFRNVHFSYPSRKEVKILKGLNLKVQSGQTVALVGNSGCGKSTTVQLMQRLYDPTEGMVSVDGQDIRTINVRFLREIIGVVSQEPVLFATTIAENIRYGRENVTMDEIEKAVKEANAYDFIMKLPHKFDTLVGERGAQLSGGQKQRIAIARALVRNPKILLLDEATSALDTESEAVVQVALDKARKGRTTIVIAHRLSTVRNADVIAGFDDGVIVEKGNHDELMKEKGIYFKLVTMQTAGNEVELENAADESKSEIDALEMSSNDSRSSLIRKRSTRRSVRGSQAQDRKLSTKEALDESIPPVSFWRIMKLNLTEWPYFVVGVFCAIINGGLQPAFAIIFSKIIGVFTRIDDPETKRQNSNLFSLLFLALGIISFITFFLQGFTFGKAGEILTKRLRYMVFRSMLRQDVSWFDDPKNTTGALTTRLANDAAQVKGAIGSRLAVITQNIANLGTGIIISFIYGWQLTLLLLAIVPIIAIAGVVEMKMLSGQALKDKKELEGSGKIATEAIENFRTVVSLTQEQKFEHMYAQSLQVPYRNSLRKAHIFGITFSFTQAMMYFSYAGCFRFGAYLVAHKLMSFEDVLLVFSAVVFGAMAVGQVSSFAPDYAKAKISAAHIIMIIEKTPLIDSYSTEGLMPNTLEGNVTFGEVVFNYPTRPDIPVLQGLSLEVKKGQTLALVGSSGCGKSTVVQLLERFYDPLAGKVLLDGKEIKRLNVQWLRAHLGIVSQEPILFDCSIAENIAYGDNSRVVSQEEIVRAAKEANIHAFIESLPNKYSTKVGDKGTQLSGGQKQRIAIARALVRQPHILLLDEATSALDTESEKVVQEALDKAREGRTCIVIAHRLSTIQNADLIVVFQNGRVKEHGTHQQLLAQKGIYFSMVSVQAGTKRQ
Put plainly: in vitro. The class given is binding. From the text:
FIG. 5. […]. Membrane vesicles from the multidrug resistant human breast cancer tumor cell line […] were used. […].

For data set [7] the following is noted: cited from earlier work. This is another data set of the same source.
Data set [8] has as its system p-glycoprotein. As to conditions: cited from earlier work.
Data set [9] deals with p-glycoprotein. The note with it: cited from earlier work. This is another data set of the same source.
The subject of data set [10] is multi-drug resistance (MDR) P388 cells. The note with it: cited from earlier work.
A further data set relates to DNA topoisomerase 1. As to conditions: cited from earlier work.
The conditions of data set [11]: cited from earlier work. This is another data set of the same source.
For data set [12], the system named is p-glycoprotein. As to conditions: cited from earlier work. The source holds these as a separate data set.
In data set [13] the test system is p-glycoprotein. As to conditions: cited from earlier work. The source holds these as a separate data set.
In data set [14] the test system is p-glycoprotein. As to conditions: rat, in vivo. As to the method:
Animal protocol: Female Wistar rats (~200 gm) having a permanent catheter installed in the right jugular vein were obtained from Charles River Breeding Laboratories (Wilmington, Mass.).
The catheter was flushed with 500 μl of physiologic saline after each drug administration.
After each sample the catheter was flushed with an equal volume of physiologic saline. The samples were immediately centrifuged at 2500×g for 10 minutes and the plasma obtained was stored at -70° C. until analysis.
Data Analysis: The plasma concentration-time profile of the control and pretreated groups of rats were analyzed using non-compartmental methods (PCNONLIN, SCI, Lexington, Ky.). […] The nonparametric Mann-Whitney test was used to test for differences in AUC between the control and pretreated groups.

The subject of data set [15] is p-glycoprotein. The note with it: mouse, in vivo; cited from earlier work.
Data set [16] concerns O . volvulus microfilaria. The note with it: cited from earlier work.
The test system of data set [17] is breast, ovarian, non-small cell lung, colorectal, gastric and renal cell carcinomas. As to conditions: in vitro; cited from earlier work.

`Cc1c(-c2cnccn2)ssc1=S` [Oltipraz, 4-methyl-5(2-pyrazinyl)-3H-1,2-dithiole-3-thione]: the “induction of phase II enzymes / glucuronidation” value in the data set on glucuronosyltransferase was “inducer of GST and UDP-glucuronosyltransferase”.

For the molecule `O.O=P1(N(CCCl)CCCl)NCCCO1` (stereo not shown) [Cyclophosphamide, 2H-1,3,2-Oxazaphosphorin-2-amine, N,N-bis(2-chloroethyl)tetrahydro-, 2-oxide, monohydrate], the stability result in data set [1] is reported as “stable in the gastrointestinal tract”.

On to `CCc1c2c(nc3ccc(O)cc13)-c1cc3c(c(=O)n1C2)COC(=O)[C@]3(O)CC` [SN-38, 7-ethyl-10-hydroxy-camptothecin], for which the “potency relative to the parent drug CPT-11” value in the data set with tumors (in vivo) was 600-1000 times. Further, the route of excretion entry in [2] is listed as “excreted primarily into bile”. In addition, the “terminal half-life of closed ring forms” value in data set [3] (human, in vivo) was 7.6 to 8.8 h. In [4] (in vivo), the “increase in AUC SN-38 from secondary peak” value is given as roughly 12%, the “increase of AUC from 100 to 175 mg/m^2” value was determined as 3.7 fold and the “interpatient variability of AUC (percent coefficient of variation)” value is 2-44%. Moreover, the cause of diarrhea result in [5] is listed as “responsible for the diarrhea”. Further, the substrate of p-glycoprotein result on p-glycoprotein [6] was “substrates of p-glycoprotein”. 100 µM produced 60% inhibition against p-glycoprotein [6] (human, mcf-7/adr membrane vesicles). In data set [7] (rat, in vivo), the “biliary radioactivity excreted over 24 h as” value is given as 9%.

Take `C/C=C/C[C@@H](C)C(=O)[C@H]1C(=O)N[C@@H](C(C)C)C(=O)N(C)CC(=O)N(C)[C@@H](CC(C)C)C(=O)N[C@@H](C(C)C)C(=O)N(C)[C@@H](CC(C)C)C(=O)N[C@@H](C)C(=O)N[C@H](C)C(=O)N(C)[C@@H](CC(C)C)C(=O)N(C)[C@@H](CC(C)C)C(=O)N(C)[C@@H](C(C)C)C(=O)N1C` [SDZ PSC 833]: in the data set on p-glycoprotein [8], the “inhibition of / interaction with p-glycoprotein” value was “inhibited p-glycoprotein; also recorded: effective inhibitor; also recorded: effective at inhibiting p-glycoprotein”. For the same molecule, the “persistence of p-glycoprotein inhibition” value in the data set on p-glycoprotein [8] (single pulse exposure) was “still exhibiting inhibition of p-glycoprotein function even two days after a single pulse exposure”. Besides, in the data set on p-glycoprotein [8] (vs verapamil, cyclosporine A, progesterone or anthracycline analogues), the “p-glycoprotein inhibition relative to comparator” value was “more effective than cyclosporine A; also recorded: stronger inhibitors than verapamil”. Moreover, in the data set on p-glycoprotein [9] (acidic pH), the “effect of acidic extracellular conditions on inhibitory activity” value is on record as “not affected by acidic extracellular conditions”. In addition, in the data set with p-glycoprotein [9], the “inhibition of vinblastine transport” value is reported as “the most effective inhibitor”; the lowest inhibitory concentration is 10 ng/ml and 9 nM. Further, in [10], the “activity relative to cyclosporine A in restoring drug sensitivity” value is on record as “at least one order of magnitude more active than cyclosporine A”.

For `CC[C@@]1(O)C(=O)OCc2c1cc1n(c2=O)Cc2cc3ccccc3nc2-1` [Camptothecin], in the data set with tumors (sodium salt vs closed lactone), the antitumor activity reduction result was “about 10 fold”. The “concentration producing nicks in the DNA” value with DNA topoisomerase 1 was “about 0.5 μM”. Also, in data set [11] (sodium salt), the “dose-limiting toxicity in early clinical trials” value was “severe dose-limiting hemorrhagic cystitis and unpredictable myelosuppression”.

Turning to `C=C[C@H]1C[N@@]2CC[C@H]1C[C@@H]2[C@@H](O)c1ccnc2ccc(OC)cc12` [quinidine], the “inhibition of / interaction with p-glycoprotein” value in the data set with p-glycoprotein [8] is “binds to p-glycoprotein and inhibits photo-labeling”. Also, the oral absorption in data set [3] (human, in vivo) is listed as 90%. Besides, the “elimination by hepatic biotransformation” value in data set [3] (human, liver) is on record as 50-60%. Also, the “inhibition of digoxin transport” value in the data set with p-glycoprotein [12] is given as “inhibited digoxin transport”. In the data set on p-glycoprotein [13], the “inhibition of amphiphilic cation transport” value was “inhibit”.

`COC(=O)[C@H]1[C@H]2C[C@@H]3c4[nH]c5cc(OC)ccc5c4CCN3C[C@H]2C[C@@H](OC(=O)c2cc(OC)c(OC)c(OC)c2)[C@@H]1OC` [reserpine, Yohimban-16-carboxylic acid, 11,17-dimethoxy-18-[(3,4,5-trimethoxybenzoyl)oxy]-, methyl ester, (3β,16β,17α,18β,20α)-]: the “inhibition of / interaction with p-glycoprotein” value in the data set on p-glycoprotein [8] was “binds to p-glycoprotein and inhibits photo-labeling”. Moreover, the “inhibition of photoaffinity labeling of p-glycoprotein” value in the data set with p-glycoprotein [8] (photolabeling) was “showed inhibition”. Further, the “oral absorption” value in [3] (human, in vivo) is “absorbed poorly and erratically”. Further, the “persistence of effects after discontinuation” value in data set [11] (oral) is recorded as no more than 4 weeks. The “inhibition of digoxin transport” value in the data set on p-glycoprotein [12] is given as “inhibited”.

As for `CCc1c2c(nc3ccc(O[C@@H]4O[C@H](C(=O)O)[C@@H](O)[C@H](O)[C@H]4O)cc13)-c1cc3c(c(=O)n1C2)COC(=O)[C@]3(O)CC` [SN-38G], in data set [4] (1.75 fold dose range), the “increase of AUC from 100 to 175 mg/m^2” value came to 2.7 fold. Also, the “urinary estimates of SN-38G, fold lower in patients with grade 3-4 diarrhea (average)” value in [4] (grade 3-4 diarrhea) is 2.5 fold. Further, in data set [4] (in vivo), the “increase in AUC between 145 and 175 mg/m^2” value is listed as “no increase”. Besides, the “Overall Increase in AUC SN-38G” value with p-glycoprotein [14] stood at 1.93 fold. The “biliary radioactivity excreted over 24 h as” value in data set [7] (rats, 24 h) is 22%.

As to `CC[C@H](C)[C@H]1O[C@]2(CC[C@@H]1C)C[C@@H]1C[C@@H](C/C=C(\C)[C@@H](O[C@H]3C[C@H](OC)[C@@H](O[C@H]4C[C@H](OC)[C@@H](O)[C@H](C)O4)[C@H](C)O3)[C@@H](C)/C=C/C=C3\CO[C@@H]4[C@H](O)C(C)=C[C@@H](C(=O)O1)[C@]34O)O2` [Ivermectin], in data set [3] (oral), the “time to peak plasma concentration” value is no more than 4 h. Also, in data set [3] (plasma or terminal half-life), the half-life result is reported as “about 10 hours”. In the data set on p-glycoprotein [15], the “sensitivity of p-glycoprotein-disrupted mice” value is on record as “increased sensitivity”. Moreover, in data set [16] (single dose), the cure of strongyloidiasis entry is “can cure human strongyloidiasis”. Moreover, the “reduction of microfilaria in skin and ocular tissues” value in [16] (single oral dose 0.15 to 0.20 mg/kg) is “rapid and marked reduction”.

`CC[C@@]1(O)C(=O)OCc2c1cc1n(c2=O)Cc2cc3c(CN(C)C)c(O)ccc3nc2-1` [topotecan]: the “activity in clonogenic assay” value in data set [17] is “exhibited activity in breast, ovarian, non-small cell lung, colorectal, gastric and renal cell carcinomas”.
